Assay results taken from the CheMixHub viscosity set.

Assay: xn = mol fraction of the nth substance listed

COc1ccccc1 + CCCCCCCO
viscosity [mPa·s]
Settings	303 K	303.15 K	313 K	313.15 K	323 K	323.15 K
100 kPa, x1 = 0.126	3.393	–	2.351	–	1.972	–
100 kPa, x1 = 0.245	2.343	–	1.746	–	1.46	–
100 kPa, x1 = 0.357	1.759	–	1.349	–	1.173	–
100 kPa, x1 = 0.464	1.364	–	1.124	–	0.9642	–
100 kPa, x1 = 0.565	1.172	–	0.9672	–	0.849	–
100 kPa, x1 = 0.66	1.068	–	0.8719	–	0.7334	–
100 kPa, x1 = 0.752	0.9884	–	0.8171	–	0.684	–
100 kPa, x1 = 0.838	0.9459	–	0.7783	–	0.6326	–
100 kPa, x1 = 0.921	0.9418	–	0.7546	–	0.6041	–
101.33 kPa, x1 = 0.1002	–	3.922	–	2.94	–	2.245
101.33 kPa, x1 = 0.1999	–	3.023	–	2.359	–	1.812
101.33 kPa, x1 = 0.3	–	2.457	–	1.932	–	1.554
101.33 kPa, x1 = 0.4003	–	1.996	–	1.611	–	1.292
101.33 kPa, x1 = 0.5	–	1.701	–	1.373	–	1.161
101.33 kPa, x1 = 0.6	–	1.448	–	1.212	–	0.998
101.33 kPa, x1 = 0.7002	–	1.213	–	1.01	–	0.864
101.33 kPa, x1 = 0.8002	–	1.072	–	0.892	–	0.768
101.33 kPa, x1 = 0.9001	–	0.969	–	0.824	–	0.714

CC1COC(=O)O1 (centres undefined) + CCCCCCO
Settings	viscosity [mPa·s]
298 K, 101.3 kPa, x1 = 0.0204	4.601
298 K, 101.3 kPa, x1 = 0.0408	4.607
298 K, 101.3 kPa, x1 = 0.0606	4.612
298 K, 101.3 kPa, x1 = 0.0808	4.612
298 K, 101.3 kPa, x1 = 0.1003	4.609
298 K, 101.3 kPa, x1 = 0.2005	4.548
298 K, 101.3 kPa, x1 = 0.3005	4.406
298 K, 101.3 kPa, x1 = 0.4004	4.191
298 K, 101.3 kPa, x1 = 0.5001	3.912
298 K, 101.3 kPa, x1 = 0.6002	3.586
298 K, 101.3 kPa, x1 = 0.7001	3.228
298 K, 101.3 kPa, x1 = 0.8001	2.854
298 K, 101.3 kPa, x1 = 0.9	2.536
298.15 K, 101 kPa, x1 = 0.0254	4.523
298.15 K, 101 kPa, x1 = 0.0901	4.346
298.15 K, 101 kPa, x1 = 0.1722	4.13
298.15 K, 101 kPa, x1 = 0.2303	3.984
298.15 K, 101 kPa, x1 = 0.3087	3.796
298.15 K, 101 kPa, x1 = 0.3846	3.621
298.15 K, 101 kPa, x1 = 0.4521	3.473
298.15 K, 101 kPa, x1 = 0.5332	3.303
298.15 K, 101 kPa, x1 = 0.6124	3.145
298.15 K, 101 kPa, x1 = 0.7005	2.978
298.15 K, 101 kPa, x1 = 0.7883	2.821
298.15 K, 101 kPa, x1 = 0.8455	2.722
298.15 K, 101 kPa, x1 = 0.9112	2.614
298.15 K, 101 kPa, x1 = 0.977	2.509

COc1ccccc1 + CCCCCCO
viscosity [mPa·s], 101.33 kPa
Settings	x1 = 0.0998	x1 = 0.2	x1 = 0.3002	x1 = 0.4	x1 = 0.5	x1 = 0.6002	x1 = 0.6997	x1 = 0.8001	x1 = 0.9
303.15 K	3.055	2.413	1.969	1.661	1.423	1.27	1.097	1.009	0.927
313.15 K	2.325	1.886	1.569	1.334	1.166	1.049	0.932	0.858	0.798
323.15 K	1.798	1.481	1.248	1.107	0.966	0.878	0.786	0.744	0.699

CC1COC(=O)O1 (centres undefined) + CCCCCO
298.15 K, 101 kPa
Settings	viscosity [mPa·s]
x1 = 0.0218	3.297
x1 = 0.0861	3.235
x1 = 0.1654	3.161
x1 = 0.2433	3.094
x1 = 0.3101	3.029
x1 = 0.374	2.973
x1 = 0.4207	2.933
x1 = 0.5003	2.865
x1 = 0.5691	2.808
x1 = 0.6326	2.756
x1 = 0.7214	2.685
x1 = 0.8072	2.618
x1 = 0.8655	2.574
x1 = 0.9573	2.505

COc1ccccc1 + CCCCCO
viscosity [mPa·s], 101.33 kPa
Settings	x1 = 0.1	x1 = 0.1998	x1 = 0.3002	x1 = 0.4001	x1 = 0.5	x1 = 0.6002	x1 = 0.6998	x1 = 0.6999	x1 = 0.8001	x1 = 0.9
303.15 K	2.369	1.911	1.658	1.447	1.26	1.109	–	1.046	0.952	0.914
313.15 K	1.841	1.522	1.326	1.173	1.022	0.929	–	0.862	0.814	0.791
323.15 K	1.403	1.172	1.062	0.953	0.853	0.792	0.745	–	0.708	0.696

C1CCOC1 + CCCCO
101 kPa
Settings	viscosity [mPa·s]
298.15 K, x1 = 0.0512	2.141
298.15 K, x1 = 0.102	1.844
298.15 K, x1 = 0.1406	1.658
298.15 K, x1 = 0.183	1.504
298.15 K, x1 = 0.3126	1.154
298.15 K, x1 = 0.4002	0.9777
298.15 K, x1 = 0.4443	0.9072
298.15 K, x1 = 0.5	0.8514
298.15 K, x1 = 0.5121	0.8099
298.15 K, x1 = 0.5924	0.7195
298.15 K, x1 = 0.6795	0.6388
298.15 K, x1 = 0.7633	0.5776
298.15 K, x1 = 0.8268	0.5346
298.15 K, x1 = 0.8944	0.5033
298.15 K, x1 = 0.9677	0.4714
313.15 K, x1 = 0.0576	1.529
313.15 K, x1 = 0.1184	1.324
313.15 K, x1 = 0.173	1.166
313.15 K, x1 = 0.2282	1.035
313.15 K, x1 = 0.3549	0.831
313.15 K, x1 = 0.4542	0.7105
313.15 K, x1 = 0.5481	0.6237
313.15 K, x1 = 0.6462	0.5526
313.15 K, x1 = 0.7386	0.4994
313.15 K, x1 = 0.8296	0.4574
313.15 K, x1 = 0.8747	0.439
313.15 K, x1 = 0.9154	0.4256
313.15 K, x1 = 0.9584	0.4129

CC(=O)Oc1ccccc1C(=O)O + CCCCO
viscosity [mPa·s], 101 kPa
Settings	x1 = 0.0007	x1 = 0.00094	x1 = 0.00118	x1 = 0.00141	x1 = 0.00165	x1 = 0.00189	x1 = 0.00236
293.15 K	2.93	2.931	2.932	2.933	2.934	2.935	2.938
298.15 K	2.57	2.571	2.572	2.573	2.574	2.575	2.576
303.15 K	2.26	2.262	2.262	2.263	2.264	2.265	2.266
308.15 K	2.001	2.002	2.003	2.005	2.005	2.007	2.009
310.15 K	1.9	1.901	1.901	1.902	1.903	1.903	1.905
313.15 K	1.766	1.767	1.767	1.768	1.768	1.769	1.769
